Legend:
[1] = system: Host Versus Graft Reaction (HvGR) in the Rat; test: Inhibitory activity against host versus graft reaction (HvGR) in the rat; type: in vivo; details: Lewis rats injected with WKAH/Hkm spleen cells into hind foot pads; oral, once a day for 4 successive days; popliteal lymph node weight
Text: Determination of the Inhibitory Activity Against Host Versus Graft Reaction (HvGR) in the Rat
(1) Two Strains of Rats (Lewis Rats (Male, 6 Weeks Old, Charles River Japan) and WKAH/Hkm (Male, 7 Weeks Old, SLC Japan)) Were Used. Five Rats (Host) Per Group Were Used.
The spleen cells were isolated from the spleen of the rats and 1×10^8 cells were suspended in the RPMI640 medium (LIFE TECHNOLOGIES, Rockville Md. USA). One hundred microliter (1×10^7 cells) of the spleen cell suspension whose cells were isolated from either WKAH/Hkm rats or Lewis rats were subcutaneously injected into the bilateral feet pad of the hindlimbs of the Lewis rat.
(3) Administration of the Compound
The compound was suspended in 0.5% tragacanth solution The suspended compound was orally administered to rats in the drug-treated group (Lewis rats injected with spleen cells isolated from AH/Hkm rats, and treated with the compound) at a volume of 5 ml/kg. The treatment was started on the day of the spleen cell injection, once a day, for 4 successive days. Tragacanth solution (0.5%) was orally administered, instead of the suspension of the test compound, to the rats in the same strain group (Lewis rats injected with spleen cells which were isolated from the Lewis rats) and to the rats in the control group (Lewis rats injected spleen cells isolated from WKAH/Hkm rats, and not treated with the test compound).
(4) Determination Procedures for Inhibitory Activity Against HvGR
The average weight of the popliteal lymph node of the same strain rats was subtracted from the weight of the popliteal lymph node of the individual rat (popliteal lymph gland weight due to HvGR). The inhibition rate of the popliteal lymph node weight due to HvGR of the individual rat treated with the test compound against the average weight of the control rats was calculated. The inhibitory activity of the test compound was expressed as an ID50 value (mg/kg) calculated from the dose-inhibition rate by the least square method.

Adjuvant Arthritis = test: Inhibitory activity on induction of adjuvant arthritis; type: in vivo, rat; details: adjuvant (Mycobacterium butylricum) in right hind paw of female Lewis rats; oral, once daily for 21 days; swelling volume of right hind paw
Method: Determination of the Inhibitory Activity of the Compounds of the Present Invention on Induction of Adjuvant Arthritis
1. Preparation of Adjuvant
Heat-killed, Mycobacterium butylricum was suspended in mineral oil at a concentration of 2 mg/ml and sonicated with an ultrasonic apparatus.
2. Preparation of the Test Compound.
The test compound was suspended in 0.5% Tragacanth solution.
3. Induction of Adjuvant Arthritis
The adjuvant prepared as described in 1 was intradermally injected into the right hind paw of the female rats (usually Lewis rats were used) at a volume of 0.05 ml. Five rats per group were used. In one group of rats, adjuvant was not injected for the control group.
4. Administration of the Compound
The compound solution prepared as described in 2 was orally administered to rats from the injection day of the adjuvant, once daily for 21 days, at a dose of 5 ml/kg. Tragacanth solution (0.5%) was orally administered to one group of rats treated with adjuvant (the control group) and also to rats not treated with adjuvant.
5. Calculation Methods of Inhibitory Activity of the Compound
The volume of the right hind paw was determined with a plethymometer. The volume of the intact paw was subtracted from the individual volume, and the difference was used as the swelling volume. Then the inhibitory activity of the compound was calculated from the individual swelling volume of rats treated with the compound and that in the swelling volume of the control rats. The ID50 value of the compound was obtained from the doses treated and the average inhibitory rate of the group.

## C[C@](N)(CO)CCc1ccc(C#CCCCC2CCCCC2)s1 [Example 1, (2R)-Amino-2-methyl-4-[5-(5-Cyclohexylpent-1-ynyl)thiophen-2-yl]butan-1-ol]
[1]
  HvGR ID50 values: 0.0843 mg/kg
Adjuvant Arthritis
  ID50 value: 0.0897 mg/kg

## C[C@](N)(CO)CCc1ccc(CCCCCC2CCCCC2)s1 [Example 11, (2R)-Amino-2-methyl-4-[5-(5-Cyclohexylpent)thiophen-2-yl]butan-1-ol]
[1]
  HvGR ID50 values: 0.0844 mg/kg

## Cc1ccc(OCC#Cc2ccc(CC[C@@](C)(N)CO)s2)cc1.O=C(O)/C=C\C(=O)O [Example 34, (2R)-Amino-2-methyl-4-{5-[3-(4-methylphenoxy)propynyl]thiophen-2-yl}butan-1-ol Maleate]
Adjuvant Arthritis
  ID50 value: 0.0470 mg/kg

## COc1ccc(OCC#Cc2ccc(CC[C@@](C)(N)CO)s2)cc1OC.O=C(O)/C=C\C(=O)O [Example 40, (2R)-Amino-2-methyl-4-{5-[3-(3,4-dimethoxphenoxy)propynyl]thiophen-2-yl}butan-1-ol Maleate]
[1]
  HvGR ID50 values: 0.0683 mg/kg

## COc1cccc(OCC#Cc2ccc(CC[C@@](C)(N)CO)s2)c1.O=C(O)/C=C\C(=O)O [Example 43, (2R)-Amino-2-methyl-4-{5-[3-(3-methoxylphenoxy)propynyl]thiophen-2-yl}butan-1-ol Maleate]
[1]
  HvGR ID50 values: 0.0730 mg/kg

## Cc1ccc(OCC#Cc2ccc(CC[C@@](C)(N)CO)s2)cc1C.O=C(O)/C=C\C(=O)O [Example 46, (2R)-Amino-2-methyl-4-{5-[3-(3,4-dimethylphenoxy)propynyl]thiophen-2-yl}butan-1-ol Maleate]
[1]
  HvGR ID50 values: 0.0454 mg/kg

## CCCCCCCCc1ccc(CCC(N)(CO)CO)cc1.Cl [Reference Compound 1, reference compound]
[1]
  HvGR ID50 values: 0.354 mg/kg
Adjuvant Arthritis
  ID50 value: 0.1666 mg/kg
